Laboratory results as given in paper PMC3266496 (2011).

Experiments:
trypanothione reductase [1] = target: T1, trypanothione reductase (Leishmania infantum, UniProt A4HSF7); assay: X-ray crystal structure at […] Å; assay type: biochemical
trypanothione reductase [2] = target: T1, trypanothione reductase; assay: NADPH oxidation kinetics at […] nm, Lineweaver–Burk and Dixon plots; assay type: biochemical

T1 sequence (A4HSF7 1-491): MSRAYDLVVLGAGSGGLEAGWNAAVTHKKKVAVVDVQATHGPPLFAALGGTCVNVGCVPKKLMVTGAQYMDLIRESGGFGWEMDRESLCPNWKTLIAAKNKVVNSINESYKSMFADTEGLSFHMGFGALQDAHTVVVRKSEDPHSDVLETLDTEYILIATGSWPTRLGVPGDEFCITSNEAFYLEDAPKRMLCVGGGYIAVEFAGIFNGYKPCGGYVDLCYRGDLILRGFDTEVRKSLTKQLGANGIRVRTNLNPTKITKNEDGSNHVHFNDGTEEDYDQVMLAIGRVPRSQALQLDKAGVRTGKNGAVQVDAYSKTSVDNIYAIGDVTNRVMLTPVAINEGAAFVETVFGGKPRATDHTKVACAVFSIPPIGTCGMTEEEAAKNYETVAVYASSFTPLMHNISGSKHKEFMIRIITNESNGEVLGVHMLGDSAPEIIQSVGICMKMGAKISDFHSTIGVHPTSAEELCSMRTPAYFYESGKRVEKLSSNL

Compound	Ki (trypanothione reductase [1])	Ki (trypanothione reductase [2])
CC[P](CC)(CC)=[Au][S][C@@H]1O[C@H](COC(C)=O)[C@@H](OC(C)=O)[C@H](OC(C)=O)[C@H]1OC(C)=O [AF, auranofin]	155 ± 35 nM	
CCP(CC)CC.[Au+].[Cl-] [CTPAu, Chloro(triethylphosphine)gold(I)]		18 ± 7 nM
